Holding throughout (format): in vivo, C57BL/6 mice
Experiment [1] relates to myelin in spinal cord of EAE mice. Description: TEM of spinal cord sections from EAE mice (myelination). To be noted: 0.03 mg/kg i.p. daily from day 17, day 45. On the procedure: Experimental detail: EAE was induced in female C57BL/6 mice as described in Example 1. On day 17, mice were started on daily treatment with vehicle only or nalmefene at 0.03 mg/kg by i.p. injection. On day 45 after immunization to induce EAE, mice were culled and spinal cords were processed for transmission electron microscopy (TEM).

In experiment [2] the test system is lymphocyte populations in the spleen of EAE mice. In words: Splenocyte flow cytometry in chronic phase of EAE. To be noted: 0.01 mg/kg i.p. daily, 27 days post treatment initiation. On the procedure: Experimental detail: EAE was induced in female C57BL/6 mice as described in Example 1. On the day of disease onset (score >1), mice were started on daily treatment with vehicle only or nalmefene at 0.01 mg/kg by i.p. injection. During the chronic phase (27 days post treatment initiation), mice were culled and their splenocytes assessed by flow cytometry. The percentage of the major lymphocyte populations were identified using CD4 (CD4 T helper cells), CD8 (CD8 cytotoxic T cells), and B220 (B cells), and expressed as % live leukocytes (i.e. CD45^+ cells). Shown are the means and standard error of individual mice with n=3 (healthy), 4 (vehicle) and 9 (NaIM). No significant differences were found between vehicle and healthy or nalmefene by one-way ANOVA with Holm-Sidak's multiple comparison test.
Experimental detail: EAE was induced in female C57BL/6 mice as described in Figure A. On the day of disease onset (score >1), mice were started on daily treatment with vehicle only or nalmefene at 0.01 mg/kg by i.p. injection. During the chronic phase (27 days post treatment initiation), mice were culled and their splenocytes assessed by flow cytometry. Naïve CD4 T cells (CD4^+CD44^−CD62L^high), effector CD4 T cells (CD4^+CD44^+CD62L^−), and central memory CD4T cells (CD4^+CD44^+CD62L^high) are expressed as % CD4 T cells. “Teff:cm ratio” is the ratio of effector to central memory T cells. […]

Experiment [3] concerns experimental autoimmune encephalomyelitis (EAE) mice. In words: EAE model of MS, daily disease score (paralysis), treatment from day 17. On the procedure:
Experimental detail: Female, C57BL/6 mice were immunized subcutaneously (s.c.) in the hind flanks to induce EAE using myelin oligodendrocyte glycoprotein (MOG) peptide 35-55 (50 μg/mouse) in complete Freund's adjuvant containing heat-killed Mycobacterium tuberculosis (500 μg/mouse). In addition, pertussis toxin (200 ng/mouse) was administered intraperitoneally (i.p.) on days 0 and 2. Mice were weighed and scored daily. On day 17 (dotted line), mice were started on daily treatment with vehicle only (Veh; 10% tween and 10% DMSO in saline) or Nalmefene (NaIM) at 0.1, 0.03, or 0.01 mg/kg by i.p. injection. Nalmefene was supplied by University of Kansas, Synthetic Chemical Biology Core Laboratory, 97.6% pure by HPLC). Treatment allocation was blinded. The disease was scored from 0-5 with 0 (normal), 1 (partial tail paralysis), 2 (full tail paralysis), 3 (one hind limb paralysed or severe disability in both hind limbs), 4 (complete paralysis of both hind limbs) and 5 (moribund). This model is a standard disease model for multiple sclerosis and is described in White et al. 2018. Scientific Reports. 8:259 which is incorporated herein by reference in its entirety. Shown are results combined from 2 independent experiments. ****p<0.0001 by one-way ANOVA with Dunnett's multiple comparison test.
Experimental detail: EAE was induced in female C57BL/6 mice as described in Example 1. On day 17, mice were started on daily treatment with vehicle only (Veh) or nalmefene (NaIM) at 0.1 or 0.03 mg/kg by i.p. injection. The area under the curve (AUC) was calculated for each mouse based upon the daily disease score and represents the total disability experienced. Shown are results from 1 representative experiment. *p<0.05 by one-way ANOVA with Dunnett's multiple comparison test.
Experimental detail: EAE was induced in female C57BL/6 mice as described in Example 1. On day 17 (dotted line), mice were started on daily treatment with vehicle only (Veh) or nalmefene (NaIM) at 0.1 or 0.03 mg/kg by i.p. injection. Shown are mice that were not sick at the time of treatment but developed disease later. *p<0.05 by two-way ANOVA with Holm-Sidak's multiple comparison test.

Experiment [4] concerns cuprizone-induced demyelination in mice. In words: Cuprizone demyelination disease model, TEM of corpus callosum, g-ratio. Particulars: 0.3% cuprizone diet, 0.01 mg/kg i.p. daily from day 28, day 70. On the procedure:
Experimental details: A demyelinating disease state was induced in female C57BL/6 mice (8-14 weeks old and between 17-23 grams in weight). The mice were fed cuprizone-containing chow (0.3% (w/w) cuprizone) or chow only (normal controls) for 35 days, at which point they were switched back to standard chow. At day 28, mice were started on daily treatment with vehicle only (DMSO: Tween 80: Saline) or nalmefene at 0.01 mg/kg by i.p. injection. On day 70, mice were culled and brain tissue were processed for transmission electron microscopy (TEM). Mice were weighed daily and the % weight change calculated.
Experimental details: A demyelinating disease state was induced in female C57BL/6 mice as described in FIG. 19A. FIGS. 19A-C show representative Transmission Electron Microscopy (TEM) images of the corpus callosum of mice (A) fed normal diet and (B-C) fed 0.3% cuprizone to induce demyelination. Following the time course described in FIG. 19A, cuprizone fed mice were administered (B) vehicle only treatment, and (C) nalmefene (0.01 mg/kg/i.p.) and then sacrificed on experimental day 70. Scale bars represent 2000 nm.
Mice fed a normal diet have a mean g-ratio of 0.78±0.09 in contrast to mice fed 0.3% cuprizone that have a significant increase in g-ratio of 0.84±0.1 corresponding to the decreased myelin thickness (####p<0.0001). […] Data represents measurements of 5 TEM images of the corpus callosum from 2-3 mice per treatment group and g-ratios calculated (a measure of myelin thickness) using Image J software. Analysis was performed by individuals blinded to treatment groups. (n=200-400 axons per treatment group). All data analysed by one-way ANOVA followed by Turkeys multiple comparisons test.

Setting [5] is: treated prior to disease onset, 0.1 or 0.03 mg/kg i.p. daily from day 17.

Regarding `C=C1CC[C@@]2(O)[C@H]3Cc4ccc(O)c5c4[C@@]2(CCN3CC2CC2)[C@H]1O5` [nalmefene, (4R,4aS,7aS,12bS)-3-(cyclopropylmethyl)-7-methylidene-2,4,5,6,7a,13-hexahydro-1H-4,12-methanobenzofuro[3,2-e]isoquinoline-4a,9-diol], the “myelination of nerve axons in spinal cord (TEM)” value in experiment [1] was “nerve axons appear healthy and well myelinated”. Besides, in experiment [2], the “Teff:cm ratio (effector to central memory CD4 T cells) in spleen” value is “reduced ratio” and the “proportion of major lymphocyte populations in the spleen (CD4, CD8, B220; % live leukocytes)” value is recorded as “does not alter the proportion of the major lymphocyte populations in the spleen”. Besides, in experiment [3] (0.1, 0.03 or 0.01 mg/kg i.p. daily from day 17, 45 days), the “disease score (recovery from paralysis)” value was “reduction of disease in all nalmefene-treated groups indicates recovery from paralysis”. The “reduction in disease (total disability, AUC of daily disease score)” value in experiment [3] (0.1 and 0.03 mg/kg i.p. daily from day 17, by day 45) is given as 70%. In experiment [3] (0.1 or 0.03 mg/kg i.p. daily from day 17, by day 45), the “total disability (AUC of disease score)” value is on record as “significantly lower total disability”. In addition, in experiment [3] (setting [5]), the onset of disease result is “did not alter the onset of disease” and the “recovery from paralysis (disease score)” value is recorded as “rapid recovery from paralysis”. For the same compound, in experiment [4], the “axonal-myelin structure and remyelination (TEM)” value is “more normal axonal-myelin structure and organisation, and increased remyelination”; the “g-ratio (measure of myelin thickness), corpus callosum” value stood at 0.791±0.01; the “g-ratio compared to vehicle” value is recorded as “significantly lower g-ratio compared to vehicle only treated”.

The record behind these values is US20210023074A1, “TREATMENT OF DEMYELINATING DISEASES” (Victoria Link Ltd., priority 2018, published 2021).
